Question: Which results are given for O=C(NC(Cc1cc(=O)[nH]c2ccccc12)C(=O)O)c1ccc(Cl)cc1 (stereo not given)?
Answer: solubility (mole fraction) (in PEG-400, 288.15 K): 0.00236; solubility (mole fraction) (in PEG-400, 293.15 K): 0.0025; solubility (mole fraction) (in PEG-400, 298.15 K): 0.00264; solubility (mole fraction) (in PEG-400, 303.15 K): 0.00278; solubility (mole fraction) (in PEG-400, 308.15 K): 0.00292; solubility (mole fraction) (in acetone, 288.15 K): 1.01e-05; solubility (mole fraction) (in acetone, 293.15 K): 1.2e-05; solubility (mole fraction) (in acetone, 298.15 K): 1.43e-05; solubility (mole fraction) (in acetone, 303.15 K): 1.7e-05; solubility (mole fraction) (in acetone, 308.15 K): 2e-05; solubility (mole fraction) (in acetonitrile, 288.15 K): 8.25e-07; solubility (mole fraction) (in acetonitrile, 293.15 K): 1.07e-06; solubility (mole fraction) (in acetonitrile, 298.15 K): 1.38e-06; solubility (mole fraction) (in acetonitrile, 303.15 K): 1.74e-06; solubility (mole fraction) (in acetonitrile, 308.15 K): 2.2e-06; solubility (mole fraction) (in ethanol, 288.15 K): 7.58e-05; solubility (mole fraction) (in ethanol, 293.15 K): 8.61e-05; solubility (mole fraction) (in ethanol, 298.15 K): 9.68e-05; solubility (mole fraction) (in ethanol, 303.15 K): 0.000109; solubility (mole fraction) (in ethanol, 308.15 K): 0.000122; solubility (mole fraction) (in ethyl acetate, 288.15 K): 1.91e-06; solubility (mole fraction) (in ethyl acetate, 293.15 K): 2.21e-06; solubility (mole fraction) (in ethyl acetate, 298.15 K): 2.56e-06; solubility (mole fraction) (in ethyl acetate, 303.15 K): 2.94e-06; solubility (mole fraction) (in ethyl acetate, 308.15 K): 3.38e-06; solubility (mole fraction) (in glycerin, 288.15 K): 2.97e-06; solubility (mole fraction) (in glycerin, 293.15 K): 3.45e-06; solubility (mole fraction) (in glycerin, 298.15 K): 4.02e-06; solubility (mole fraction) (in glycerin, 303.15 K): 4.63e-06; solubility (mole fraction) (in glycerin, 308.15 K): 5.35e-06; solubility (mole fraction) (in isopropanol, 288.15 K): 3.82e-05; solubility (mole fraction) (in isopropanol, 293.15 K): 4.75e-05; solubility (mole fraction) (in isopropanol, 298.15 K): 5.83e-05; solubility (mole fraction) (in isopropanol, 303.15 K): 7.17e-05; solubility (mole fraction) (in isopropanol, 308.15 K): 8.79e-05; solubility (mole fraction) (in methanol, 288.15 K): 7.56e-05; solubility (mole fraction) (in methanol, 293.15 K): 8.55e-05; solubility (mole fraction) (in methanol, 298.15 K): 9.59e-05; solubility (mole fraction) (in methanol, 303.15 K): 0.000107; solubility (mole fraction) (in methanol, 308.15 K): 0.00012; solubility (mole fraction) (in n-butanol, 288.15 K): 5.47e-05; solubility (mole fraction) (in n-butanol, 293.15 K): 6.51e-05; solubility (mole fraction) (in n-butanol, 298.15 K): 7.73e-05; solubility (mole fraction) (in n-butanol, 303.15 K): 9.12e-05; solubility (mole fraction) (in n-butanol, 308.15 K): 0.000107; solubility (mole fraction) (in n-propanol, 288.15 K): 6.1e-05; solubility (mole fraction) (in n-propanol, 293.15 K): 7.1e-05; solubility (mole fraction) (in n-propanol, 298.15 K): 8.24e-05; solubility (mole fraction) (in n-propanol, 303.15 K): 9.55e-05; solubility (mole fraction) (in n-propanol, 308.15 K): 0.000109; solubility (mole fraction) (in propylene glycol, 288.15 K): 0.000204; solubility (mole fraction) (in propylene glycol, 293.15 K): 0.000224; solubility (mole fraction) (in propylene glycol, 298.15 K): 0.000246; solubility (mole fraction) (in propylene glycol, 303.15 K): 0.000268; solubility (mole fraction) (in propylene glycol, 308.15 K): 0.000291; solubility (mole fraction) (in water, 288.15 K): 5.17e-07; solubility (mole fraction) (in water, 293.15 K): 6.74e-07; solubility (mole fraction) (in water, 298.15 K): 8.69e-07; solubility (mole fraction) (in water, 303.15 K): 1.12e-06; solubility (mole fraction) (in water, 308.15 K): 1.43e-06

Reference: BigSolDB 2.1
